Results as given in ChEMBL document CHEMBL1201862, “PubChem BioAssay data set” (2004).
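Results reflect a 48-hour exposure of cells in 96-well plates to compound at five concentrations. Here, GI50 denotes the concentration required for 50% inhibition of growth.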 Activity calls are given as the source filed them. Rule as the data show it: active = GI50 up to about 1.1 µM and inactive = higher.

Key:
Assay in all cases: NCI anticancer screen, dose series, 48 h
Malme-3M = tested on: Malme-3M
HT-29 = tested on: HT-29
RPMI-8226 = tested on: RPMI-8226
OVCAR-5 = tested on: OVCAR-5
SN12C = tested on: SN12C
RXF 393 = tested on: RXF 393
HOP-18 = tested on: HOP-18
DMS-273 = tested on: DMS-273
786-0 = tested on: 786-0
CCRF-CEM = tested on: CCRF-CEM
SK-MEL-5 = tested on: SK-MEL-5
DMS-114 = tested on: DMS-114
OVCAR-3 = tested on: OVCAR-3
ACHN = tested on: ACHN
HOP-62 = tested on: HOP-62
EKVX = tested on: EKVX
SNB-78 = tested on: SNB-78
NCI-H226 = tested on: NCI-H226
SK-MEL-28 = tested on: SK-MEL-28
OVCAR-4 = tested on: OVCAR-4
NCI-H23 = tested on: NCI-H23
SF-539 = tested on: SF-539
SF-295 = tested on: SF-295
A549 = tested on: A549
MCF7 = tested on: MCF7
K562 = tested on: K562
NCI-H522 = tested on: NCI-H522
SK-MEL-2 = tested on: SK-MEL-2
SF-268 = tested on: SF-268
DLD-1 = tested on: DLD-1
IGROV-1 = tested on: IGROV-1
LXFL 529 = tested on: LXFL 529
SNB-19 = tested on: SNB-19
OVCAR-8 = tested on: OVCAR-8
SW-620 = tested on: SW-620
UACC-257 = tested on: UACC-257
NCI/ADR-RES = tested on: NCI/ADR-RES
M14 = tested on: M14
UACC-62 = tested on: UACC-62
SR = tested on: SR
COLO 205 = tested on: COLO 205
SK-OV-3 = tested on: SK-OV-3
HCC 2998 = tested on: HCC 2998
HOP-92 = tested on: HOP-92
SNB-75 = tested on: SNB-75
HL-60 = tested on: HL-60
UO-31 = tested on: UO-31
CAKI-1 = tested on: CAKI-1
KM12 = tested on: KM12
A498 = tested on: A498
HCT-15 = tested on: HCT-15
M19-MEL = tested on: M19-MEL
NCI-H460 = tested on: NCI-H460
U-251 = tested on: U-251
HCT-116 = tested on: HCT-116
KM-20L2 = tested on: KM-20L2
MOLT-4 = tested on: MOLT-4
LOX IMVI = tested on: LOX IMVI
TK-10 = tested on: TK-10
XF498 = tested on: XF498

Structure (SMILES): CNC(=O)OCc1nc(SC(C)C)n(C)c1COC(=O)NC
- GI50 (Malme-3M): > 100 µM (inactive)
- GI50 (HT-29): > 100 µM (inactive)
- GI50 (RPMI-8226): > 71.1 µM (inactive)
- GI50 (OVCAR-5): > 100 µM (inactive)
- GI50 (SN12C): > 100 µM (inactive)
- GI50 (RXF 393): 33.4 µM (inactive)
- GI50 (HOP-18): > 100 µM (inactive)
- GI50 (DMS-273): 99.8 µM (inactive)
- GI50 (786-0): > 100 µM (inactive)
- GI50 (CCRF-CEM): 48.5 µM (inactive)
- GI50 (SK-MEL-5): > 100 µM (inactive)
- GI50 (DMS-114): > 83.6 µM (inactive)
- GI50 (OVCAR-3): > 100 µM (inactive)
- GI50 (ACHN): > 100 µM (inactive)
- GI50 (HOP-62): > 100 µM (inactive)
- GI50 (EKVX): > 100 µM (inactive)
- GI50 (SNB-78): 65.6 µM (inactive)
- GI50 (NCI-H226): > 100 µM (inactive)
- GI50 (SK-MEL-28): > 100 µM (inactive)
- GI50 (OVCAR-4): > 100 µM (inactive)
- GI50 (NCI-H23): > 100 µM (inactive)
- GI50 (SF-539): > 100 µM (inactive)
- GI50 (SF-295): > 100 µM (inactive)
- GI50 (A549): > 100 µM (inactive)
- GI50 (MCF7): > 100 µM (inactive)
- GI50 (K562): > 69.8 µM (inactive)
- GI50 (NCI-H522): 58.5 µM (inactive)
- GI50 (SK-MEL-2): > 100 µM (inactive)
- GI50 (SF-268): > 91.6 µM (inactive)
- GI50 (DLD-1): > 100 µM (inactive)
- GI50 (IGROV-1): > 100 µM (inactive)
- GI50 (LXFL 529): > 100 µM (inactive)
- GI50 (SNB-19): > 100 µM (inactive)
- GI50 (OVCAR-8): > 100 µM (inactive)
- GI50 (SW-620): > 100 µM (inactive)
- GI50 (UACC-257): > 100 µM (inactive)
- GI50 (NCI/ADR-RES): > 100 µM (inactive)
- GI50 (M14): > 100 µM (inactive)
- GI50 (UACC-62): > 100 µM (inactive)
- GI50 (SR): > 100 µM (inactive)
- GI50 (COLO 205): > 100 µM (inactive)
- GI50 (SK-OV-3): > 100 µM (inactive)
- GI50 (HCC 2998): > 100 µM (inactive)
- GI50 (HOP-92): > 100 µM (inactive)
- GI50 (SNB-75): > 100 µM (inactive)
- GI50 (HL-60): 57 µM (inactive)
- GI50 (UO-31): > 100 µM (inactive)
- GI50 (CAKI-1): > 72.3 µM (inactive)
- GI50 (KM12): > 100 µM (inactive)
- GI50 (A498): > 100 µM (inactive)
- GI50 (HCT-15): > 100 µM
- GI50 (M19-MEL): > 100 µM (inactive)
- GI50 (NCI-H460): 72.8 µM (inactive)
- GI50 (U-251): > 100 µM (inactive)
- GI50 (HCT-116): > 100 µM (inactive)
- GI50 (KM-20L2): > 100 µM (inactive)
- GI50 (MOLT-4): 44.8 µM (inactive)
- GI50 (LOX IMVI): > 100 µM (inactive)

Structure (SMILES): O=C(c1ccccc1)C1N=NN(Cc2ccccc2[N+](=O)[O-])C1C(=O)c1ccccc1 (configuration not stated)
- GI50 (Malme-3M): > 100 µM (inactive)
- GI50 (HT-29): > 100 µM (inactive)
- GI50 (RPMI-8226): > 100 µM (inactive)
- GI50 (OVCAR-5): > 100 µM (inactive)
- GI50 (RXF 393): > 100 µM (inactive)
- GI50 (HOP-18): > 100 µM (inactive)
- GI50 (DMS-273): > 100 µM (inactive)
- GI50 (786-0): > 100 µM (inactive)
- GI50 (CCRF-CEM): > 100 µM (inactive)
- GI50 (SK-MEL-5): > 100 µM (inactive)
- GI50 (DMS-114): > 100 µM (inactive)
- GI50 (OVCAR-3): > 100 µM (inactive)
- GI50 (ACHN): > 100 µM (inactive)
- GI50 (HOP-62): > 100 µM (inactive)
- GI50 (EKVX): > 100 µM (inactive)
- GI50 (SNB-78): > 100 µM (inactive)
- GI50 (NCI-H226): > 100 µM (inactive)
- GI50 (SK-MEL-28): > 100 µM (inactive)
- GI50 (OVCAR-4): > 100 µM (inactive)
- GI50 (NCI-H23): > 100 µM (inactive)
- GI50 (SF-295): > 100 µM (inactive)
- GI50 (A549): 37.8 µM (inactive)
- GI50 (K562): > 100 µM (inactive)
- GI50 (NCI-H522): > 100 µM (inactive)
- GI50 (SK-MEL-2): > 100 µM (inactive)
- GI50 (SF-268): > 100 µM (inactive)
- GI50 (DLD-1): > 100 µM (inactive)
- GI50 (IGROV-1): > 100 µM (inactive)
- GI50 (TK-10): > 100 µM (inactive)
- GI50 (LXFL 529): > 100 µM (inactive)
- GI50 (SNB-19): > 100 µM (inactive)
- GI50 (OVCAR-8): > 100 µM (inactive)
- GI50 (SW-620): > 100 µM (inactive)
- GI50 (UACC-257): > 100 µM (inactive)
- GI50 (M14): > 100 µM (inactive)
- GI50 (UACC-62): > 100 µM (inactive)
- GI50 (SR): > 100 µM (inactive)
- GI50 (COLO 205): 34.5 µM (inactive)
- GI50 (SK-OV-3): 87.3 µM (inactive)
- GI50 (HCC 2998): 96.8 µM (inactive)
- GI50 (HOP-92): > 100 µM (inactive)
- GI50 (SNB-75): 41.5 µM (inactive)
- GI50 (HL-60): > 100 µM (inactive)
- GI50 (UO-31): > 100 µM (inactive)
- GI50 (CAKI-1): > 100 µM (inactive)
- GI50 (KM12): > 100 µM (inactive)
- GI50 (HCT-15): > 100 µM
- GI50 (M19-MEL): > 100 µM (inactive)
- GI50 (NCI-H460): > 100 µM (inactive)
- GI50 (U-251): > 100 µM (inactive)
- GI50 (HCT-116): > 100 µM (inactive)
- GI50 (KM-20L2): > 100 µM (inactive)
- GI50 (MOLT-4): > 100 µM (inactive)
- GI50 (LOX IMVI): > 100 µM (inactive)

Structure (SMILES): COc1ccc(/C=C(\C2=NC(=O)CS2)c2nc3ccccc3[nH]2)cc1
- GI50 (Malme-3M): 69.3 µM (inactive)
- GI50 (HT-29): > 100 µM (inactive)
- GI50 (RPMI-8226): > 100 µM (inactive)
- GI50 (OVCAR-5): 41.8 µM (inactive)
- GI50 (SN12C): 52.4 µM (inactive)
- GI50 (RXF 393): 3.13 µM (inactive)
- GI50 (DMS-273): > 100 µM (inactive)
- GI50 (CCRF-CEM): 39.4 µM (inactive)
- GI50 (SK-MEL-5): 37.6 µM (inactive)
- GI50 (DMS-114): 19.5 µM (inactive)
- GI50 (OVCAR-3): 22 µM (inactive)
- GI50 (ACHN): 37.6 µM (inactive)
- GI50 (HOP-62): 32.1 µM (inactive)
- GI50 (EKVX): 38.4 µM (inactive)
- GI50 (SNB-78): 21.5 µM (inactive)
- GI50 (NCI-H226): 8.95 µM (inactive)
- GI50 (SK-MEL-28): 87.9 µM (inactive)
- GI50 (OVCAR-4): > 100 µM (inactive)
- GI50 (XF498): 14.5 µM (inactive)
- GI50 (NCI-H23): 69.7 µM (inactive)
- GI50 (SF-539): 4.6 µM (inactive)
- GI50 (SF-295): 37.2 µM (inactive)
- GI50 (A549): > 100 µM (inactive)
- GI50 (K562): 78.2 µM (inactive)
- GI50 (NCI-H522): 16.5 µM (inactive)
- GI50 (SK-MEL-2): 24 µM (inactive)
- GI50 (SF-268): > 100 µM (inactive)
- GI50 (DLD-1): > 100 µM (inactive)
- GI50 (IGROV-1): 52.1 µM (inactive)
- GI50 (TK-10): > 100 µM (inactive)
- GI50 (LXFL 529): 60.7 µM (inactive)
- GI50 (SNB-19): > 100 µM (inactive)
- GI50 (OVCAR-8): 46.8 µM (inactive)
- GI50 (SW-620): > 100 µM (inactive)
- GI50 (UACC-257): 78 µM (inactive)
- GI50 (M14): 93.1 µM (inactive)
- GI50 (UACC-62): > 100 µM (inactive)
- GI50 (SR): > 100 µM (inactive)
- GI50 (COLO 205): > 100 µM (inactive)
- GI50 (SK-OV-3): 15.8 µM (inactive)
- GI50 (HCC 2998): < 0.01 µM (active)
- GI50 (HOP-92): 80.2 µM (inactive)
- GI50 (SNB-75): 28.1 µM (inactive)
- GI50 (HL-60): > 100 µM (inactive)
- GI50 (UO-31): 32.7 µM (inactive)
- GI50 (CAKI-1): > 100 µM (inactive)
- GI50 (KM12): 35.2 µM (inactive)
- GI50 (A498): 75.9 µM (inactive)
- GI50 (HCT-15): 83.8 µM
- GI50 (M19-MEL): 43.5 µM (inactive)
- GI50 (NCI-H460): 38.9 µM (inactive)
- GI50 (U-251): 42.3 µM (inactive)
- GI50 (HCT-116): 85.1 µM (inactive)
- GI50 (KM-20L2): 49 µM (inactive)
- GI50 (MOLT-4): 54.8 µM (inactive)
